# Reference: US11747321B2, “Apparatuses for cell mapping via impedance measurements and methods to operate the same” (President and Fellows of Harvard College, priority 2020, dated 2023)
# Assays:
# MDCK cells [1] = tested on: MDCK cells
# Text: Ethylenediaminetetraacetic acid (EDTA) is applied to the cells. EDTA is a calcium chelator that removes Ca^2+ needed for integrin proteins to maintain cell adhesion.
# FIG. 6b is a data plot showing mean normalized impedances for different regions of the cell culture over time as specified in the map 601. FIG. 6cc are histograms of the normalized impedance values before, during, and after a washout of EDTA across the array.
# MDCK cells [2] = test: Wound healing assay: electrochemically patterned wound, regrowth measured by impedance mapping; format: cell-based, Canine; settings: 1 μM, over 72 hours, control culture shows regrowth
# Text: This example describes a combined application of both the cross-electrode impedance mapping and cell patterning is a wound healing assay.
# These assays gauge cell growth rate and metabolism and can be useful for screening drugs affecting these parameters. Compared to the electrochemical patterning described herein, other tools mechanically generate a wound in a cell culture via a mechanical scratch which is both difficult to control and limiting in terms of wound pattern.
# In this example, a wound is made in MDCK cells and then the growth is mapped in real-time. […] These patterns were defined by applying electrode currents of −10 nA for 40 s versus a Ag/AgCl pseudo reference electrode. The regrowth of the culture was then measured using the impedance mapping method.
Compound,"time course of cell detachment with EDTA applied (MDCK cells [1]; 5 mM EDTA application, normalized impedance maps) [min]",time course of cell re-attachment after EDTA washout (MDCK cells [1]; EDTA washed out by adding normal culture media) [min],regrowth of wounded cell culture (normalized cross-electrode impedance maps) (MDCK cells [2])
"O=C(O)CN(CCN(CC(=O)O)CC(=O)O)CC(=O)O [EDTA, Ethylenediaminetetraacetic acid]",~50,~200,
C=C1[C@@H](C)[C@H]2[C@H](Cc3ccccc3)NC(=O)[C@]23OC(=O)/C=C/[C@H](O)CCC[C@@H](C)C/C=C/[C@H]3[C@@H]1O [cytochalasin B],,,very little growth
